Measured values: patent US20260022142A1, “MACROCYCLIC IMMUNOMODULATORS” (Bristol-Myers Squibb Company, priority 2022, published 2026)
Numbered stars: 1 amine (or outer) side, 2 acyl side, 3 side chain; on linkers, the order of the positions; unused ones are H or OH. Bridge positions count the residues as written; N and C are the ends. Square brackets hold non-standard residues; d marks the D form. Peptide text beside a SMILES is read from it. * marks the point of attachment. ξ: configuration not given here. Bip = N[C@@H](Cc1ccc(-c2ccccc2)cc1)C(=O)O; Phe(3-Me) = Cc1cccc(C[C@H](N)C(=O)O)c1; γGlu = O=C(O)[C@H](CCC(=O)[*:2])N[*:1]; Cha = N[C@@H](CC1CCCCC1)C(=O)O; Thr(3ξ) = CC(O)[C@H](N)C(=O)O; Carboxymethyl = O=C(O)C*; Orn = NCCC[C@H](N)C(=O)O; Aun = NCCCCCCCCCCC(=O)O; Dab = NCC[C@H](N)C(=O)O; Dap = NC[C@H](N)C(=O)O; AEEA = NCCOCCOCC(=O)O

Target: T1, PD-1/PD-L1 interaction (PE-labeled human PD-L1-Ig binding to Jurkat cell line over-expressing human PD-1) (Homo sapiens, UniProt Q15116)
T1 construct: expressed in transfected cells; host or cells: Jurkat
T1 sequence (Q15116 25-288): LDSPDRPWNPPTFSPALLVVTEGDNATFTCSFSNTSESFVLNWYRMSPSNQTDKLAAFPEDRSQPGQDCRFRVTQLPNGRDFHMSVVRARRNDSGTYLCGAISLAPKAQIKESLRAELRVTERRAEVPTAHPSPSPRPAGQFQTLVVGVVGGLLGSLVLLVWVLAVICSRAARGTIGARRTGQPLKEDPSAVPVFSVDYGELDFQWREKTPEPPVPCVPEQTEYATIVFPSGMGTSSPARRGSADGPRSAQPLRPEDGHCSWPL
Assay: Jurkat-PD-1 Cell Binding High-Content Screening Assay (CBA)
Format: cell-based
Settings: Jurkat cell line over-expressing human PD-1; PE-labeled PD-L1-Ig 20 nM final; read-out: Jurkat hPD1-PDL1 IC50
Procedure, shortened: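 Human PD-L1-Ig carrying a covalent PE label on its Ig tag serves as the probe, applied at 20 nM final to compound-treated (2 h, 37° C) Jurkat-hPD-1 cells in medium with 10% fetal calf serum. After one hour, fixation and nuclear staining precede high-content image analysis.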

IC50	SMILES
152 nM	CC(C)C[C@H]1NC(=O)[C@H](CCCN)NC(=O)[C@H](Cc2ccc(O)cc2)NC(=O)[C@H](Cc2ccc(-c3ccccc3)cc2)NC(=O)[C@H](Cc2ccc(O)cc2)NC(=O)[C@H](Cc2c[nH]c3ccccc23)NC(=O)[C@H](CC(=O)O)NC(=O)[C@H](Cc2ccc(OCC(=O)O)cc2)NC(=O)[C@H](C(C)O)NC(=O)CSC[C@@H](C(=O)N[C@@H](CCN)C(=O)NCCCCCCCCCCC(=O)O)NC(=O)[C@H](CN)NC(=O)[C@H](C(C)O)NC(=O)[C@H](CC2CCCCC2)NC(=O)[C@H](CCN)NC1=O (stereo partly drawn) [Compound 3669] ({CH2CO}-[Thr(3ξ)]Y(Carboxymethyl)DWY[Bip]Y[Orn][dL][Dab][Cha][Thr(3ξ)][Dap]C[Dab][Aun]-OH; thioether N-14)
64.2 nM	CC(C)C[C@H]1NC(=O)[C@H](CCCN)NC(=O)[C@H](Cc2ccc(O)cc2)NC(=O)[C@H](Cc2ccc(-c3ccccc3)cc2)NC(=O)[C@H](Cc2ccc(O)cc2)NC(=O)[C@H](Cc2c[nH]c3ccccc23)NC(=O)[C@H](CC(=O)O)NC(=O)[C@H](Cc2ccc(OCC(=O)O)cc2)NC(=O)[C@H](C(C)O)NC(=O)CSC[C@@H](C(=O)N[C@@H](CCN)C(=O)NCCCCCCCCCCC(=O)O)NC(=O)[C@H](CCCCN)NC(=O)[C@H](C(C)O)NC(=O)[C@H](CC2CCCCC2)NC(=O)[C@H](CCN)NC1=O (stereo partly drawn) [Compound 3670] ({CH2CO}-[Thr(3ξ)]Y(Carboxymethyl)DWY[Bip]Y[Orn][dL][Dab][Cha][Thr(3ξ)]KC[Dab][Aun]-OH; thioether N-14)
105 nM	CC(C)C[C@@H]1NC(=O)[C@H](Cc2c[nH]c3ccccc23)NC(=O)[C@H](CC(=O)O)NC(=O)[C@H](Cc2ccc(OCC(=O)O)cc2)NC(=O)[C@H](C(C)O)NC(=O)CSC[C@@H](C(=O)N[C@@H](CCN)C(=O)NCCCCCCCCCCC(=O)O)NC(=O)[C@H](CN)NC(=O)[C@H](C(C)O)NC(=O)[C@H](CC2CCCCC2)NC(=O)[C@H](CCN)NC(=O)[C@@H](CC(C)C)NC(=O)[C@H](CCCN)NC(=O)[C@H](Cc2ccc(O)cc2)NC(=O)[C@H](Cc2ccc(-c3ccccc3)cc2)NC1=O (stereo partly drawn) [Compound 3671] ({CH2CO}-[Thr(3ξ)]Y(Carboxymethyl)DWL[Bip]Y[Orn][dL][Dab][Cha][Thr(3ξ)][Dap]C[Dab][Aun]-OH; thioether N-14)
20.7 nM	Cc1cccc(C[C@@H]2NC(=O)[C@H](CC(=O)O)NC(=O)[C@H](Cc3ccc(OCC(=O)O)cc3)NC(=O)[C@H](CCN)NC(=O)CSC[C@@H](C(=O)N[C@@H](CCN)C(=O)NCCCCCCCCCCC(=O)O)NC(=O)[C@H](CO)NC(=O)[C@H](C(C)O)NC(=O)[C@H](CC3CCCCC3)NC(=O)[C@H](Cc3cnc[nH]3)NC(=O)[C@@H](CC(C)C)NC(=O)[C@H](CCCN)NC(=O)[C@H](Cc3ccc(OCC(=O)O)cc3)NC(=O)[C@H](Cc3ccc(-c4ccccc4)cc3)NC(=O)[C@H](Cc3ccc(OCC(=O)O)cc3)NC2=O)c1 (stereo partly drawn) [Compound 3672] ({CH2CO}-[Dab]Y(Carboxymethyl)D[Phe(3-Me)]Y(Carboxymethyl)[Bip]Y(Carboxymethyl)[Orn][dL]H[Cha][Thr(3ξ)]SC[Dab][Aun]-OH; thioether N-14)
29.2 nM	CC(C)C[C@H]1NC(=O)[C@H](CCCN)NC(=O)[C@H](C(C)C)NC(=O)[C@H](Cc2ccc(-c3ccccc3)cc2)NC(=O)[C@H](C(C)C)NC(=O)[C@H](Cc2c[nH]c3ccccc23)NC(=O)[C@H](CC(=O)O)NC(=O)[C@H](Cc2ccc(OCC(=O)O)cc2)NC(=O)[C@H](C(C)O)NC(=O)CSC[C@@H](C(=O)N[C@@H](CCN)C(=O)NCCCCCCCCCCC(=O)O)NC(=O)[C@H](CCCCN)NC(=O)[C@H](C(C)O)NC(=O)[C@H](CC2CCCCC2)NC(=O)[C@H](CCN)NC1=O (stereo partly drawn) [Compound 3673] ({CH2CO}-[Thr(3ξ)]Y(Carboxymethyl)DWV[Bip]V[Orn][dL][Dab][Cha][Thr(3ξ)]KC[Dab][Aun]-OH; thioether N-14)
13.4 nM	CC(C)C[C@H]1NC(=O)[C@H](CCCN)NC(=O)[C@H](C(C)C)NC(=O)[C@H](Cc2ccc(-c3ccccc3)cc2)NC(=O)[C@H](C(C)C)NC(=O)[C@H](Cc2c[nH]c3ccccc23)NC(=O)[C@H](CC(=O)O)NC(=O)[C@H](Cc2ccc(OCC(=O)O)cc2)NC(=O)[C@H](C(C)O)NC(=O)CSC[C@@H](C(=O)N[C@@H](CCN)C(=O)NCCCCCCCCCCC(=O)O)NC(=O)[C@H](CCN)NC(=O)[C@H](C(C)O)NC(=O)[C@H](CC2CCCCC2)NC(=O)[C@H](CCN)NC1=O (stereo partly drawn) [Compound 3674] ({CH2CO}-[Thr(3ξ)]Y(Carboxymethyl)DWV[Bip]V[Orn][dL][Dab][Cha][Thr(3ξ)][Dab]C[Dab][Aun]-OH; thioether N-14)
19.3 nM	CC(C)C[C@H]1NC(=O)[C@H](CCCN)NC(=O)[C@H](C(C)C)NC(=O)[C@H](Cc2ccc(-c3ccccc3)cc2)NC(=O)[C@H](C(C)C)NC(=O)[C@H](Cc2c[nH]c3ccccc23)NC(=O)[C@H](CC(=O)O)NC(=O)[C@H](Cc2ccc(OCC(=O)O)cc2)NC(=O)[C@H](C(C)O)NC(=O)CSC[C@@H](C(=O)N[C@@H](CCN)C(=O)NCCCCCCCCCCC(=O)O)NC(=O)[C@H](CCCN)NC(=O)[C@H](C(C)O)NC(=O)[C@H](CC2CCCCC2)NC(=O)[C@H](CCN)NC1=O (stereo partly drawn) [Compound 3675] ({CH2CO}-[Thr(3ξ)]Y(Carboxymethyl)DWV[Bip]V[Orn][dL][Dab][Cha][Thr(3ξ)][Orn]C[Dab][Aun]-OH; thioether N-14)
9.2 nM	CC(C)C[C@H]1NC(=O)[C@H](CCCN)NC(=O)[C@H](C(C)C)NC(=O)[C@H](Cc2ccc(-c3ccccc3)cc2)NC(=O)[C@H](C(C)C)NC(=O)[C@H](Cc2c[nH]c3ccccc23)NC(=O)[C@H](CC(=O)O)NC(=O)[C@H](Cc2ccc(OCC(=O)O)cc2)NC(=O)[C@H](CN)NC(=O)CSC[C@@H](C(=O)N[C@@H](CCN)C(=O)NCCCCCCCCCCC(=O)O)NC(=O)[C@H](CCN)NC(=O)[C@H](C(C)O)NC(=O)[C@H](CC2CCCCC2)NC(=O)[C@H](CCN)NC1=O (stereo partly drawn) [Compound 3676] ({CH2CO}-[Dap]Y(Carboxymethyl)DWV[Bip]V[Orn][dL][Dab][Cha][Thr(3ξ)][Dab]C[Dab][Aun]-OH; thioether N-14)
11.3 nM	CC(C)C[C@H]1NC(=O)[C@H](CCCN)NC(=O)[C@H](C(C)C)NC(=O)[C@H](Cc2ccc(-c3ccccc3)cc2)NC(=O)[C@H](C(C)C)NC(=O)[C@H](Cc2c[nH]c3ccccc23)NC(=O)[C@H](CC(=O)O)NC(=O)[C@H](Cc2ccc(OCC(=O)O)cc2)NC(=O)[C@H](CN)NC(=O)CSC[C@@H](C(=O)N[C@@H](CCN)C(=O)NCCCCCCCCCCC(=O)O)NC(=O)[C@H](CCCN)NC(=O)[C@H](C(C)O)NC(=O)[C@H](CC2CCCCC2)NC(=O)[C@H](CCN)NC1=O (stereo partly drawn) [Compound 3677] ({CH2CO}-[Dap]Y(Carboxymethyl)DWV[Bip]V[Orn][dL][Dab][Cha][Thr(3ξ)][Orn]C[Dab][Aun]-OH; thioether N-14)
9.2 nM	CC(C)C[C@H]1NC(=O)[C@H](CCCN)NC(=O)[C@H](C(C)C)NC(=O)[C@H](Cc2ccc(-c3ccccc3)cc2)NC(=O)[C@H](C(C)C)NC(=O)[C@H](Cc2c[nH]c3ccccc23)NC(=O)[C@H](CC(=O)O)NC(=O)[C@H](Cc2ccc(OCC(=O)O)cc2)NC(=O)[C@H](C(C)O)NC(=O)CSC[C@@H](C(=O)N[C@@H](CCN)C(=O)NCCOCCOCC(=O)N[C@@H](CCC(=O)NCCCCCCCCCCC(=O)O)C(=O)O)NC(=O)[C@H](CCN)NC(=O)[C@H](C(C)O)NC(=O)[C@H](CC2CCCCC2)NC(=O)[C@H](CCN)NC1=O (stereo partly drawn) [Compound 3678] ({CH2CO}-[Thr(3ξ)]Y(Carboxymethyl)DWV[Bip]V[Orn][dL][Dab][Cha][Thr(3ξ)][Dab]C[Dab][AEEA][γGlu][Aun]-OH; thioether N-14)
9.6 nM	CC(C)C[C@H]1NC(=O)[C@H](CCCN)NC(=O)[C@H](C(C)C)NC(=O)[C@H](Cc2ccc(-c3ccccc3)cc2)NC(=O)[C@H](C(C)C)NC(=O)[C@H](Cc2c[nH]c3ccccc23)NC(=O)[C@H](CC(=O)O)NC(=O)[C@H](Cc2ccc(OCC(=O)O)cc2)NC(=O)[C@H](CN)NC(=O)CSC[C@@H](C(=O)N[C@@H](CCN)C(=O)NCCOCCOCC(=O)N[C@@H](CCC(=O)NCCCCCCCCCCC(=O)O)C(=O)O)NC(=O)[C@H](CCN)NC(=O)[C@H](C(C)O)NC(=O)[C@H](CC2CCCCC2)NC(=O)[C@H](CCN)NC1=O (stereo partly drawn) [Compound 3679] ({CH2CO}-[Dap]Y(Carboxymethyl)DWV[Bip]V[Orn][dL][Dab][Cha][Thr(3ξ)][Dab]C[Dab][AEEA][γGlu][Aun]-OH; thioether N-14)
15.8 nM	CC(C)C[C@H]1NC(=O)[C@H](CCCN)NC(=O)[C@H](C(C)C)NC(=O)[C@H](Cc2ccc(-c3ccccc3)cc2)NC(=O)[C@H](C(C)C)NC(=O)[C@H](Cc2c[nH]c3ccccc23)NC(=O)[C@H](CC(=O)O)NC(=O)[C@H](Cc2ccc(OCC(=O)O)cc2)NC(=O)[C@H](CN)NC(=O)CSC[C@@H](C(=O)N[C@@H](CCN)C(=O)NCCOCCOCC(=O)N[C@@H](CCC(=O)NCCCCCCCCCCC(=O)O)C(=O)O)NC(=O)[C@H](CCCN)NC(=O)[C@H](C(C)O)NC(=O)[C@H](CC2CCCCC2)NC(=O)[C@H](CCN)NC1=O (stereo partly drawn) [Compound 3680] ({CH2CO}-[Dap]Y(Carboxymethyl)DWV[Bip]V[Orn][dL][Dab][Cha][Thr(3ξ)][Orn]C[Dab][AEEA][γGlu][Aun]-OH; thioether N-14)
71.7 nM	CC(C)C[C@@H]1NC(=O)[C@H](Cc2c[nH]c3ccccc23)NC(=O)[C@H](CC(=O)O)NC(=O)[C@H](Cc2ccc(OCC(=O)O)cc2)NC(=O)[C@H](CN)NC(=O)CSC[C@@H](C(=O)N[C@@H](CCN)C(=O)NCCCCCCCCCCC(=O)O)NC(=O)[C@H](CCN)NC(=O)[C@H](C(C)O)NC(=O)[C@H](CC2CCCCC2)NC(=O)[C@H](CCN)NC(=O)[C@@H](CC(C)C)NC(=O)[C@H](CCCN)NC(=O)[C@H](Cc2ccc(O)cc2)NC(=O)[C@H](Cc2ccc(-c3ccccc3)cc2)NC1=O (stereo partly drawn) [Compound 3681] ({CH2CO}-[Dap]Y(Carboxymethyl)DWL[Bip]Y[Orn][dL][Dab][Cha][Thr(3ξ)][Dab]C[Dab][Aun]-OH; thioether N-14)
